Results from PMC5642580, “Calyxin Y sensitizes cisplatin-sensitive and resistant hepatocellular carcinoma cells to cisplatin through apoptotic and autophagic cell death via SCF βTrCP-mediated eEF2K degradation” (Oncotarget, 2017).

Tests used:
[1] = system: HepG2 cells; experiment: MTT cell viability assay; type: cell-based, human; conditions: 24 h
Experimental: HepG2 and HepG2/CDDP cells were plated in 96-well plates at a density of 5000 cells in 200 μl medium per well and incubated overnight. The cells were treated with […] and/or CDDP for 24 h, 48 or 72 h. The cell viability of HepG2 and HepG2/CDDP cells was measured by MTT assay as described previously.

[2] = system: HepG2/CDDP cells; experiment: MTT cell viability assay; type: cell-based, human
Experimental: Human hepatocellular carcinoma HepG2 cells were purchased from Cell Bank of Shanghai Institute of Biochemistry and Cell Biology, Chinese Academy of Sciences (Shanghai, China). mtrDNA sequence analysis was done by the cell bank to confirm the species and cells were tested free from mycoplasma. CDDP-selected drug-resistant HepG2/CDDP cells were derived from HepG2 cells by utilizing serial passage in the presence of increasing CDDP concentrations. Briefly, cells were treated with CDDP (1 μM) for 72 h. The media and dead cells were removed, and cells were allowed to recover for a further 72 h and then were treated with a higher concentration of CDDP. This development period was carried out for approximately 6 months, and finally, we obtained the HepG2/CDDP cells. HepG2/CDDP cells were then continuously maintained in the presence of 20 μM CDDP for a further 3 months to maintain stability. All cells were cultured in DMEM media containing 10% fetal bovine serum and incubated with 100 U/ml penicillin and 100 μg/ml streptomycin (Thermo) at 37 °C under an atmosphere of 95% air and 5% CO2.
HepG2 and HepG2/CDDP cells were plated in 96-well plates at a density of 5000 cells in 200 μl medium per well and incubated overnight. The cells were treated with calyxin Y and/or CDDP for 24 h, 48 or 72 h. The cell viability of HepG2 and HepG2/CDDP cells was measured by MTT assay as described previously.

[3] = system: HepG2 cells; experiment: Annexin V/7-AAD staining assay (flow cytometry); type: cell-based, human; conditions: CDDP 10 µM with or without calyxin Y 20 µM, 24 h
Experimental: HepG2 and HepG2/CDDP cells were plated on 6-well plates and incubated overnight. Next, the cells were treated with […] and/or CDDP for 24 h. Cells in 200 μl of binding buffer were stained with 5 μl of Annexin V-Alexa Fluor 647 ([…] Biotech Co., Ltd., China) and 5 μl of 7-AAD at room temperature for 15 min. The cells were then analyzed by flow cytometry with a BD Accuri C6 flow cytometer (Becton & Dickinson Company, Franklin Lakes, NJ, USA). The cells undergoing apoptosis are Annexin V positive.

[4] = Hematological parameters of nude mice bearing HepG2/CDDP xenograft; type: in vivo, BALB/c nu/nu mice; conditions: calyxin Y 20 mg/kg i.p. every other day and/or CDDP 4 mg/kg i.p. once per week, 19 days; mean ± S.D., n = 3
Experimental: (§1) All animal procedures were performed according to comply with the ARRIVE guidelines, the U.K. Animals (Scientific Procedures) Act, 1986 and associated guidelines. The protocol was approved by the Institutional Animal Care and Use Committee at China Pharmaceutical University. Four-week-old BALB/c nu/nu mice (18-22 g) purchased from Shanghai Laboratory Animal Center of Chinese Academy of Sciences (Shanghai, China) were used for in vivo experiments. Animals were housed at a constant room temperature with a 12 h:12 h light/dark cycle and were provided a standard rodent diet and water. HepG2/CDDP cells were harvested and injected subcutaneously into the right flank (1 × 10^7 cells in 150 μl of cold PBS). […] (1) control group, mice were injected intraperitoneally (i.p.) with 10% DMSO + 90% normal saline (n = 6); (2) […] group: mice were injected i.p. with 20 mg/kg […] every other day (n = 6); (3) CDDP group: mice were injected i.p. with 4 mg/kg CDDP once per week (n = 6); (4) […] + CDDP group: mice were injected i.p. with 20 mg/kg […] every other day and 4 mg/kg CDDP once per week (n = 6). The tumor volume was determined by measuring length (l) and width (w) and calculating volume (V = 0.5 × l × w^2) at the indicated time points. At the end of treatment, the animals were sacrificed, and the tumors were removed and weighed for use in histology and protein expression studies. Using a standard saphenous vein blood collection technique, blood was drawn for hematologic and serum biochemistry analyses.

[5] = Hematological biochemical parameters of nude mice bearing HepG2/CDDP xenograft; type: in vivo, BALB/c nu/nu mice; conditions: calyxin Y 20 mg/kg i.p. every other day and/or CDDP 4 mg/kg i.p. once per week, 19 days; mean ± S.D., n = 3
Experimental: as §1

[6] = system: HepG2/CDDP cells; experiment: Western blot of cleaved caspase-3/7/PARP; type: cell-based, human; conditions: CDDP 10 µM with or without calyxin Y 20 µM, 24 h
Text: The procedures for Western blotting were described previously.

[7] = system: eEF2K in HepG2 cells; conditions: calyxin Y 5, 10, 20 µM, 24 h
Experimental: (§2) HepG2 and HepG2/CDDP cells were lysed in western blotting lysis buffer and centrifuged at 12000 g for 10 min. The procedures for Western blotting were described previously.

[8] = system: eEF2K in HepG2/CDDP cells; conditions: calyxin Y 5, 10, 20 µM, 24 h
Experimental: as §2

[9] = system: eEF2K mRNA in HepG2 cells; conditions: calyxin Y 5, 10, 20 µM, 24 h
Experimental: (§3) Total RNA samples from HepG2 and HepG2/CDDP cells were extracted using RNAiso Plus reagent following the manufacturer’s protocols. RNA (1 μg) was reverse-transcribed using a ReverTra Ace qPCR RT-Kit (Toyobo Life Science, Osaka, Japan) in a MyCycler PCR system (BioRad Laboratories, Hercules, CA). SYBR Green PCR Master Mix was purchased from Toyobo Life Science. The 2^−ΔΔCT cycle threshold method was used for the calculation of relative differences in mRNA abundance with a LightCycler 480 qPCR System (Roche Molecular Biochemicals, Mannheim, Germany). Data were normalized to the expression of β-Actin. The results of qRT-PCR were expressed as fold-changes. The normalized value of the target mRNA of the control group is arbitrarily presented as 100. The pairs of primer for PCR were listed below: • eEF2K: (sense) 5′-[…]-3′; • eEF2K: (antisense) 5′-[…]-3′. • β-Actin: (sense) 5′-[…] CAATG-3′; • β-Actin: (antisense) 5′-[…]-3′.

[10] = system: eEF2K mRNA in HepG2/CDDP cells; conditions: calyxin Y 5, 10, 20 µM, 24 h
Experimental: as §3

| Molecule | Hematocrit [4] [%] | Hemoglobin [4] [g/L] | Lymphocytes [4] | Mean corpuscular hemoglobin [4] [pg] | Mean corpuscular volume [4] [fL] | Platelet counts [4] | Red blood cells [4] | White blood cells [4] | Alanine aminotransferase [5] [U/L] | Alkaline phosphatase [5] [U/L] | Aspartate aminotransferase [5] [U/L] | other results |
| --- | --- | --- | --- | --- | --- | --- | --- | --- | --- | --- | --- | --- |
| [NH2][Pt]([NH2])([Cl])[Cl] [CDDP, cisplatin] | 44.3 ± 2.8 | 126.3 ± 4.7 | 8.9 ± 1.9 10^9/L | 13.4 ± 0.29 | 47.7 ± 3.5 | 562.1 ± 19.2 10^9/L | 9.6 ± 0.67 10^12/L | 9.9 ± 0.39 10^9/L | 40.2 ± 1.2 | 125.4 ± 0.91 | 158.5 ± 5.1 | IC50 ([1]; MTT): 16.7 µM; IC50 ([2]; HepG2/CDDP cells, 24 h, MTT): 95.4 µM; resistance index ([2]; HepG2/CDDP vs HepG2, IC50 at 24 h): ~6 fold; apoptosis (AV+ cells) [3]: 31%; cleavage of caspase-7, caspase-3 and PARP [6]: did not cause the cleavage |
| Calyxin Y | 44.1 ± 1.4 | 138.4 ± 7.0 | 18.5 ± 1.8 10^9/L | 14.5 ± 0.13 | 47.3 ± 3.3 | 588.5 ± 80.5 10^9/L | 11.0 ± 0.27 10^12/L | 15.2 ± 2.2 10^9/L | 37.5 ± 1.4 | 115.4 ± 2.7 | 129.3 ± 3.5 | cell viability ([1]; calyxin Y 10, 20, 30, 40 µM): concentration-dependent manner; cell viability ([2]; HepG2/CDDP cells, calyxin Y 10, 20, 30, 40 µM, 24 h): inhibited the viability of HepG2/CDDP cells as much as it did that of HepG2 cells in a concentration-dependent manner; eEF2K expression [7]: reduced eEF2K expression in a dose-dependent manner; eEF2K expression [8]: reduced eEF2K expression in a dose-dependent manner; eEF2K mRNA levels [9]: not significantly changed; eEF2K mRNA levels [10]: not significantly changed |
